According to patent US7867989B2, “α-glucosidase inhibitors from lichens” (priority 2007, dated 2011):

Target: α-Glucosidase (EC 3.2.1.20)
Conditions: read-out: IC50 values ± SEM against α-glucosidase enzyme; pH 6.9, 37° C., 0.5 μM p-nitrophenyl α-D-glucopyranoside substrate, 250 units/mL enzyme, 50 mM sodium phosphate buffer with 100 mM NaCl
Description: The increments in absorption at 400 nm due to the hydrolysis of PNP-G by α-glucosidase were monitored continuously with a molecular devices spectrophotometer.

CC(C)(O)[C@H]1CC[C@]2(C)[C@H]3CC[C@@H]4[C@@]5(C)CCCC(C)(C)[C@@H]5[C@@H](O)C[C@@]4(C)[C@]3(C)CC[C@@H]12 [Zeorin, 6,22-Hopanediol]
IC50: 100 ± 0.3 µM
